Patent US20050113295A1, “Carboxamide and amino derivatives and methods of their use” (priority 2003, published 2005)
Where a SMILES comes first, the peptide text is derived from it. [ ]: non-standard residue; d: D form. Phe(4-CONH2) = NC(=O)c1ccc(C[C@H](N)C(=O)O)cc1

Key:
[1] = biological target: T1, cloned human μ opioid receptor (Homo sapiens, UniProt P35372); assay: [3H]diprenorphine receptor binding, μ opioid receptor; details: δ over μ
T1 construct: expressed in transfected cells; host or cells: CHO cells
T1 sequence (P35372 whole entry): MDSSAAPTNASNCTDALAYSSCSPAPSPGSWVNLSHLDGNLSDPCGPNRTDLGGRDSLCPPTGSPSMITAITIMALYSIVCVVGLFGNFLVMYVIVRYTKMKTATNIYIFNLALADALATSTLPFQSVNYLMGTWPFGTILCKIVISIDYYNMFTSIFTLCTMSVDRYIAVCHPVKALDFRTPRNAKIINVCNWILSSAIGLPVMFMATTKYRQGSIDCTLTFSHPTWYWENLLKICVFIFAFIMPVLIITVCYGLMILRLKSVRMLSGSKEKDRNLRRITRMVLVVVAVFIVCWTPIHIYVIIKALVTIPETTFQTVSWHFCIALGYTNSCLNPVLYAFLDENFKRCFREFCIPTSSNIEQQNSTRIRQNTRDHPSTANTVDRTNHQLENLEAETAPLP
Protocol: (§1) The potencies of the compounds of the Examples were determined by testing the ability of a range of concentrations of each compound to inhibit the binding of the non-selective opioid antagonist, [^3H]diprenorphine, to the cloned human μ, κ, and δ opioid receptors, expressed in separate cell lines. IC50 values were obtained by nonlinear analysis of the data using GraphPad Prism version 3.00 for Windows (GraphPad Software, San Diego). Ki values were obtained by Cheng-Prusoff corrections of IC50 values.
(§2) The receptor binding method (DeHaven and DeHaven-Hudkins, 1998) was a modification of the method of Raynor et al. (1994). […] The filters were rinsed 4 times with 1 mL of cold 50 mM Tris HCl, pH 7.8 and radioactivity remaining on the filters determined by scintillation spectroscopy. Nonspecific binding was determined by the minimum values of the titration curves and was confirmed by separate assay wells containing 10 μM naloxone. Ki values were determined by Cheng-Prusoff corrections of IC50 values derived from nonlinear regression fits of 12 point titration curves using GraphPad Prism® version 3.00 for Windows (GraphPad Software, San Diego, Calif.).
(§3) To determine the equilibrium dissociation constant for the inhibitors (Ki), radioligand bound (cpm) in the presence of various concentrations of test compounds was measured. […]

[2] = biological target: T2, cloned human δ opioid receptor (Homo sapiens, UniProt P41143); assay: [3H]diprenorphine receptor binding, δ opioid receptor
T2 construct: expressed in transfected cells; host or cells: CHO cells
T2 sequence (P41143 whole entry): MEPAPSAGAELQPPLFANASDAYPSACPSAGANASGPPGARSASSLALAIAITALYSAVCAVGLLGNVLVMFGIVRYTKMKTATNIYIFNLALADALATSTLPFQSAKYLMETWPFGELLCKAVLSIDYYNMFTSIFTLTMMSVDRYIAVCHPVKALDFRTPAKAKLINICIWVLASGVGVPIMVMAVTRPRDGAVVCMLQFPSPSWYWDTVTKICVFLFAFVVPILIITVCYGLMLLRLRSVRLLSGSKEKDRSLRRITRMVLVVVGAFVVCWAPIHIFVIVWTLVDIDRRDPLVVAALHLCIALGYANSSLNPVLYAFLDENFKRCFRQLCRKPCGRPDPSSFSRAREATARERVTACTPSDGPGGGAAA
Protocol: as §1, §2, §3

[3] = biological target: T3, cloned human κ opioid receptor (Homo sapiens, UniProt P41145); assay: [3H]diprenorphine receptor binding, κ opioid receptor; details: δ over κ
T3 construct: expressed in transfected cells; host or cells: CHO cells
T3 sequence (P41145 whole entry): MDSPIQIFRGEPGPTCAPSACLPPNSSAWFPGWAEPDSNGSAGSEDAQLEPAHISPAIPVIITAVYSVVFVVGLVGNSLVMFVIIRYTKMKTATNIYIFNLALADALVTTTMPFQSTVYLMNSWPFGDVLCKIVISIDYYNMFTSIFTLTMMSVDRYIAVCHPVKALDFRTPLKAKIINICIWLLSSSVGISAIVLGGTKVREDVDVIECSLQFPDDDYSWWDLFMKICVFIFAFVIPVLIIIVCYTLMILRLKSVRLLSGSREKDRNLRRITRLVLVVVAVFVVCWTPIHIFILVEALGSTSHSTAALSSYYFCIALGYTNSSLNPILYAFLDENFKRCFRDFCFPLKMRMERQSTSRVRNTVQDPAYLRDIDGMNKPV
Protocol: as §1, §2, §3

[4] = biological target: T2, cloned human δ opioid receptor; assay: Receptor-mediated [35S]GTPγS binding, δ opioid receptor; type: biochemical
Protocol: The potency and efficacy of compounds at each of the receptors are assessed by modifications of the methods of Selley et al., 1997 and Traynor and Nahorski, 1995 using receptor-mediated [^35S]GTPγS binding in the same membrane preparations used to measure receptor binding. Assays are carried out in 96-well FlashPlates® (Perkin Elmer Life Sciences, Inc, Boston, Mass.). Membranes prepared from CHO cells expressing the appropriate receptor (50-100 μg of protein) are added to assay mixtures containing agonist with or without antagonists, […] [^35S]GTPγS (approx. 100,000 dpm), 3.0 μM GDP, 75 mM NaCl, 15 mM MgCl2, 1.0 mM ethylene glycol-bis(β-aminoethyl ether)-N,N,N′,N′-tetracetic acid, 1.1 mM dithiothreitol, 10 μg/mL leupeptin, 10 μg/mL pepstatin A, 200 μg/mL bacitracin, and 0.5 μg/mL aprotinin in 50 mM Tris-HCl buffer, pH 7.8. After incubation at room temperature for one hour, the plates are sealed, centrifuged at 800×g in a swinging bucket rotor for 5 minutes and bound radioactivity determined with a TopCount microplate scintillation counter (Packard Instrument Co., Meriden, Conn.).
EC50 values for agonists are determined from nonlinear regression fits of 8- or 12-point titration curves to the 4-parameter equation for a sigmoidal dose-response with a slope factor of 1.0 using GraphPad Prism version 3.00 for Windows (GraphPad Software, San Diego, Calif.).

Question: For CC(C)C[C@H](NC(=O)[C@H](Cc1ccccc1)NC(=O)CNC(=O)CNC(=O)[C@@H](N)Cc1ccc(C(N)=O)cc1)C(N)=O [Example 1, H-Cpa-Gly-Gly-Phe-Leu-NH2] (H-[Phe(4-CONH2)]GGFL-NH2), which “selectivity versus the μ opioid receptor” value [1] is on record?
Answer: greater than 10 fold

Question: And the Ki [2]?
Answer: 0.007 µM

Question: What about the “selectivity versus the κ opioid receptor” value [3] of the same compound?
Answer: greater than 10 fold

Question: What about the EC50 [4] of the same compound?
Answer: 0.074 µM
